Laboratory results from PMC4603778, “Encoded Library Synthesis Using Chemical Ligation and the Discovery of sEH Inhibitors from a 334-Million Member Library” (Scientific Reports, 2015).

Target: T1, soluble epoxide hydrolase (sEH) (Homo sapiens, UniProt P34913)
T1 construct: gene EPHX2; His-tagged sEH protein (used in the selection)
T1 sequence (P34913 1-555): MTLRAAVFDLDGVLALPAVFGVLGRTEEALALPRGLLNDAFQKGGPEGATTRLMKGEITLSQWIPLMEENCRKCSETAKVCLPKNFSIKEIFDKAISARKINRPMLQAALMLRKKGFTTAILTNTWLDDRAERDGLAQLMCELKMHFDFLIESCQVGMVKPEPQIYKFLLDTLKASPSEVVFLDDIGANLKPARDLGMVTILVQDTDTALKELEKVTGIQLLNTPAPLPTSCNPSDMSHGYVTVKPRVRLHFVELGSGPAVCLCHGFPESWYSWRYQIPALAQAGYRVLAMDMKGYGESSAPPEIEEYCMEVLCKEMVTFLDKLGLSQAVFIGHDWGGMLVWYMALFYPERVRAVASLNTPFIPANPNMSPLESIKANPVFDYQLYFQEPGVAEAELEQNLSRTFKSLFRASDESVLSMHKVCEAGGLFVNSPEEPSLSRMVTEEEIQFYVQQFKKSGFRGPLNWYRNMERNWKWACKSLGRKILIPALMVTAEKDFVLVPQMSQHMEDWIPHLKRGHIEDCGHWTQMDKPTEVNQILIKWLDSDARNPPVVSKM
Assay: biochemical sEH inhibition assay of off-DNA compound (methyl in place of DNA linker); building-block combination enriched in affinity selection

CN(CCn1cccn1)C(=O)c1ccc(-c2cccc(C(=O)NC3CCCCC3)c2)nc1 [compound 12]
IC50: 2 nM
